# Measured values published in patent US10906910B2, “Substituted bicyclic pyrimidine compounds with tubulin and multiple receptor inhibition” (Duquesne University of the Holy Spirit, priority 2014, dated 2021).
# Counter-ions that a name gives are not always drawn.
# Assays:
# [1] = system: T-47D; assay: NCI 60 panel, Breast Cancer T-47D; type: cell-based; conditions: Homo sapiens, T47D, read-out: Tumor cell inhibitory activity (NCI) GI50
# [2] = system: OVCAR-4; assay: NCI 60 panel, Ovarian cancer OVCAR-4; type: cell-based; conditions: Homo sapiens, read-out: Tumor cell inhibitory activity (NCI) GI50
# [3] = system: SF-268; assay: NCI 60 panel, CNS Cancer SF-268; type: cell-based; conditions: Homo sapiens, read-out: Tumor cell inhibitory activity (NCI) GI50
# [4] = system: DU-145; assay: NCI 60 panel, Prostate Cancer DU-145; type: cell-based; conditions: Homo sapiens, read-out: Tumor cell inhibitory activity (NCI) GI50
# [5] = system: SNB-19; assay: NCI 60 panel, CNS Cancer SNB-19; type: cell-based; conditions: Homo sapiens, read-out: Tumor cell inhibitory activity (NCI) GI50
# [6] = system: KM12; assay: NCI 60 panel, Colon Cancer KM12; type: cell-based; conditions: Homo sapiens, read-out: Tumor cell inhibitory activity (NCI) GI50
# [7] = system: K-562; assay: NCI 60 panel, Leukemia K-562; type: cell-based; conditions: Homo sapiens, K562, read-out: Tumor cell inhibitory activity (NCI) GI50
# [8] = biological target: PDGFRβ (Homo sapiens, UniProt P09619); assay: PDGFRβ kinase inhibition, whole-cell assay; type: cell-based; conditions: whole-cell assay; read-out: kinase inhibition IC50 [whole-cell assays] PDGFRβ
# [9] = system: BT-549; assay: NCI 60 panel, Breast Cancer BT-549; type: cell-based; conditions: Homo sapiens, read-out: Tumor cell inhibitory activity (NCI) GI50
# [10] = system: NCI-H460; assay: NCI 60 panel, NSCLC NCI-H460; type: cell-based; conditions: Homo sapiens, read-out: Tumor cell inhibitory activity (NCI) GI50
# [11] = system: CCRF-CEM; assay: NCI 60 panel, Leukemia CCRF-CEM; type: cell-based; conditions: Homo sapiens, read-out: Tumor cell inhibitory activity (NCI) GI50
# [12] = system: UACC-257; assay: NCI 60 panel, Melanoma UACC-257; type: cell-based; conditions: Homo sapiens, read-out: Tumor cell inhibitory activity (NCI) GI50
# [13] = system: wild type HeLa cells; assay: HeLa cytotoxicity, wild type; type: cell-based; conditions: Homo sapiens
# [14] = system: MALME-3M; assay: NCI 60 panel, Melanoma MALME-3M; type: cell-based; conditions: Homo sapiens, read-out: Tumor cell inhibitory activity (NCI) GI50
# [15] = system: MDA-MB-231/ATCC; assay: NCI 60 panel, Breast Cancer MDA-MB-231/ATCC; type: cell-based; conditions: Homo sapiens, read-out: Tumor cell inhibitory activity (NCI) GI50
# [16] = system: SK-MEL-5; assay: NCI 60 panel, Melanoma SK-MEL-5; type: cell-based; conditions: Homo sapiens, read-out: Tumor cell inhibitory activity (NCI) GI50
# [17] = system: SR; assay: NCI 60 panel, Leukemia SR; type: cell-based; conditions: Homo sapiens, read-out: Tumor cell inhibitory activity (NCI) GI50
# [18] = system: SF-295; assay: NCI 60 panel, CNS Cancer SF-295; type: cell-based; conditions: Homo sapiens, read-out: Tumor cell inhibitory activity (NCI) GI50
# [19] = system: SF-539; assay: NCI 60 panel, CNS Cancer SF-539; type: cell-based; conditions: Homo sapiens, read-out: Tumor cell inhibitory activity (NCI) GI50
# [20] = system: SN12C; assay: NCI 60 panel, Renal Cancer SN12C; type: cell-based; conditions: Homo sapiens, read-out: Tumor cell inhibitory activity (NCI) GI50
# [21] = system: SK-MEL-28; assay: NCI 60 panel, Melanoma SK-MEL-28; type: cell-based; conditions: Homo sapiens, read-out: Tumor cell inhibitory activity (NCI) GI50
# [22] = system: MCF7; assay: NCI 60 panel, Breast Cancer MCF7; type: cell-based; conditions: Homo sapiens, read-out: Tumor cell inhibitory activity (NCI) GI50
# [23] = system: RXF 393; assay: NCI 60 panel, Renal Cancer RXF 393; type: cell-based; conditions: Homo sapiens, read-out: Tumor cell inhibitory activity (NCI) GI50
# [24] = system: OVCAR-8; assay: NCI 60 panel, Ovarian cancer OVCAR-8; type: cell-based; conditions: Homo sapiens, read-out: Tumor cell inhibitory activity (NCI) GI50
# [25] = system: U251; assay: NCI 60 panel, CNS Cancer U251; type: cell-based; conditions: Homo sapiens, U-251, read-out: Tumor cell inhibitory activity (NCI) GI50
# [26] = system: A549/ATCC; assay: NCI 60 panel, NSCLC A549/ATCC; type: cell-based; conditions: Homo sapiens, read-out: Tumor cell inhibitory activity (NCI) GI50
# [27] = system: NCI/ADR-RES; assay: NCI 60 panel, Ovarian cancer NCI/ADR-RES; type: cell-based; conditions: Homo sapiens, read-out: Tumor cell inhibitory activity (NCI) GI50
# [28] = system: OVCAR-5; assay: NCI 60 panel, Ovarian cancer OVCAR-5; type: cell-based; conditions: Homo sapiens, read-out: Tumor cell inhibitory activity (NCI) GI50
# [29] = system: COLO 205; assay: NCI 60 panel, Colon Cancer COLO 205; type: cell-based; conditions: Homo sapiens, read-out: Tumor cell inhibitory activity (NCI) GI50
# [30] = system: EKVX; assay: NCI 60 panel, NSCLC EKVX; type: cell-based; conditions: Homo sapiens, read-out: Tumor cell inhibitory activity (NCI) GI50
# [31] = system: TK10; assay: NCI 60 panel, Renal Cancer TK10; type: cell-based; conditions: Homo sapiens, TK-10, read-out: Tumor cell inhibitory activity (NCI) GI50
# [32] = system: SW-620; assay: NCI 60 panel, Colon Cancer SW-620; type: cell-based; conditions: Homo sapiens, read-out: Tumor cell inhibitory activity (NCI) GI50
# [33] = system: SK-OV-3; assay: NCI 60 panel, Ovarian cancer SK-OV-3; type: cell-based; conditions: Homo sapiens, read-out: Tumor cell inhibitory activity (NCI) GI50
# [34] = system: NCI-H226; assay: NCI 60 panel, NSCLC NCI-H226; type: cell-based; conditions: Homo sapiens, read-out: Tumor cell inhibitory activity (NCI) GI50
# [35] = system: HS 578T; assay: NCI 60 panel, Breast Cancer HS 578T; type: cell-based; conditions: Homo sapiens, read-out: Tumor cell inhibitory activity (NCI) GI50
# [36] = system: IGROVI; assay: NCI 60 panel, Ovarian cancer IGROVI; type: cell-based; conditions: read-out: Tumor cell inhibitory activity (NCI) GI50
# [37] = system: MDA-MB-435; assay: NCI 60 panel, Melanoma MDA-MB-435; type: cell-based; conditions: Homo sapiens, read-out: Tumor cell inhibitory activity (NCI) GI50
# [38] = system: UO-31; assay: NCI 60 panel, Renal Cancer UO-31; type: cell-based; conditions: Homo sapiens, read-out: Tumor cell inhibitory activity (NCI) GI50
# [39] = system: HCT-15; assay: NCI 60 panel, Colon Cancer HCT-15; type: cell-based; conditions: Homo sapiens, read-out: Tumor cell inhibitory activity (NCI) GI50
# [40] = system: CAKI-1; assay: NCI 60 panel, Renal Cancer CAKI-1; type: cell-based; conditions: Homo sapiens, read-out: Tumor cell inhibitory activity (NCI) GI50
# [41] = system: NCI 60 tumor cell line panel; assay: NCI 60 tumor cell line panel, overall; type: cell-based
# [42] = biological target: EGFR (Homo sapiens, UniProt P00533); assay: EGFR kinase inhibition, whole-cell assay; type: cell-based; conditions: read-out: kinase inhibition IC50 [whole-cell assays] EGFR
# [43] = system: HL-60(TB); assay: NCI 60 panel, Leukemia HL-60(TB); type: cell-based; conditions: Homo sapiens, read-out: Tumor cell inhibitory activity (NCI) GI50
# [44] = system: HCT-116; assay: NCI 60 panel, Colon Cancer HCT-116; type: cell-based; conditions: Homo sapiens, read-out: Tumor cell inhibitory activity (NCI) GI50
# [45] = system: NCI-H522; assay: NCI 60 panel, NSCLC NCI-H522; type: cell-based; conditions: Homo sapiens, read-out: Tumor cell inhibitory activity (NCI) GI50
# [46] = system: UACC-62; assay: NCI 60 panel, Melanoma UACC-62; type: cell-based; conditions: Homo sapiens, read-out: Tumor cell inhibitory activity (NCI) GI50
# [47] = system: NCI-H322M; assay: NCI 60 panel, NSCLC NCI-H322M; type: cell-based; conditions: Homo sapiens, read-out: Tumor cell inhibitory activity (NCI) GI50
# [48] = system: A498; assay: NCI 60 panel, Renal Cancer A498; type: cell-based; conditions: Homo sapiens, read-out: Tumor cell inhibitory activity (NCI) GI50
# [49] = system: SNB-75; assay: NCI 60 panel, CNS Cancer SNB-75; type: cell-based; conditions: Homo sapiens, read-out: Tumor cell inhibitory activity (NCI) GI50
# [50] = system: MOLT-4; assay: NCI 60 panel, Leukemia MOLT-4; type: cell-based; conditions: Homo sapiens, read-out: Tumor cell inhibitory activity (NCI) GI50
# [51] = system: OVCAR-3; assay: NCI 60 panel, Ovarian cancer OVCAR-3; type: cell-based; conditions: Homo sapiens, read-out: Tumor cell inhibitory activity (NCI) GI50
# [52] = system: HCC-2998; assay: NCI 60 panel, Colon Cancer HCC-2998; type: cell-based; conditions: Homo sapiens, read-out: Tumor cell inhibitory activity (NCI) GI50
# [53] = system: M14; assay: NCI 60 panel, Melanoma M14; type: cell-based; conditions: Homo sapiens, read-out: Tumor cell inhibitory activity (NCI) GI50
# [54] = system: NCI-H23; assay: NCI 60 panel, NSCLC NCI-H23; type: cell-based; conditions: Homo sapiens, read-out: Tumor cell inhibitory activity (NCI) GI50
# [55] = system: RPMI-8226; assay: NCI 60 panel, Leukemia RPMI-8226; type: cell-based; conditions: Homo sapiens, read-out: Tumor cell inhibitory activity (NCI) GI50
# [56] = system: ACHN; assay: NCI 60 panel, Renal Cancer ACHN; type: cell-based; conditions: Homo sapiens, read-out: Tumor cell inhibitory activity (NCI) GI50
# [57] = system: HOP-92; assay: NCI 60 panel, NSCLC HOP-92; type: cell-based; conditions: Homo sapiens, read-out: Tumor cell inhibitory activity (NCI) GI50
# [58] = system: 786-0; assay: NCI 60 panel, Renal Cancer 786-0; type: cell-based; conditions: Homo sapiens, read-out: Tumor cell inhibitory activity (NCI) GI50
# [59] = system: HOP-62; assay: NCI 60 panel, NSCLC HOP-62; type: cell-based; conditions: Homo sapiens, read-out: Tumor cell inhibitory activity (NCI) GI50
# [60] = system: MDA-MB-468; assay: NCI 60 panel, Breast Cancer MDA-MB-468; type: cell-based; conditions: Homo sapiens, read-out: Tumor cell inhibitory activity (NCI) GI50
# [61] = system: LOX IMVI; assay: NCI 60 panel, Melanoma LOX IMVI; type: cell-based; conditions: Homo sapiens, read-out: Tumor cell inhibitory activity (NCI) GI50
# Sequence of PDGFRβ (P09619 33-1106, species assumed): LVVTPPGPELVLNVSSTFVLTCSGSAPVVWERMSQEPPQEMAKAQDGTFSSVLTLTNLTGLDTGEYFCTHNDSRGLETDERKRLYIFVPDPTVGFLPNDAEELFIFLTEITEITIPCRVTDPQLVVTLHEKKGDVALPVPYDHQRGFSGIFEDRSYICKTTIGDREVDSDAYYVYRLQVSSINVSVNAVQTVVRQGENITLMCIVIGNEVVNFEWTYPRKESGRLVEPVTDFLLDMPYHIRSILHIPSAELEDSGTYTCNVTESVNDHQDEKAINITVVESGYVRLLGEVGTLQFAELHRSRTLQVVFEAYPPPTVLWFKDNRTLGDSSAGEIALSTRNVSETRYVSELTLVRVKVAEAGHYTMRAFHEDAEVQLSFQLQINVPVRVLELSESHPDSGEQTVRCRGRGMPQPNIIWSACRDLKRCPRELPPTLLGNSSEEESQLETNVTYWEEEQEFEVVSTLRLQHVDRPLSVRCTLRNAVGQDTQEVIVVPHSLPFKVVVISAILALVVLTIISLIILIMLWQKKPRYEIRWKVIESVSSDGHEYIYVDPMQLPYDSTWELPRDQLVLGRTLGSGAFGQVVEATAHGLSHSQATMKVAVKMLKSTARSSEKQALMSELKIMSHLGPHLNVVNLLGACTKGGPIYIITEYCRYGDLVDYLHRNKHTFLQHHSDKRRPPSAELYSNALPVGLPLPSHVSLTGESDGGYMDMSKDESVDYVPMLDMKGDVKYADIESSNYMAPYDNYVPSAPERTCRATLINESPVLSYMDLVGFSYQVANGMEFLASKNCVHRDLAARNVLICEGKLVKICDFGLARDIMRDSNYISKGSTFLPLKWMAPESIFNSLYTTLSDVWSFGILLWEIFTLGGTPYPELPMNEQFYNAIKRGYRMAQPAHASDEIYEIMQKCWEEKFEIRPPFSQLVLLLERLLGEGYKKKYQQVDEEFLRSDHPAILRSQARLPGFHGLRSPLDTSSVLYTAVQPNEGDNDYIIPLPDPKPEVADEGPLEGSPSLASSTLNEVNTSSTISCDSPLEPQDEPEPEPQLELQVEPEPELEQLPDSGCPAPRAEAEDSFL
# Sequence of EGFR (P00533 25-1210, species assumed): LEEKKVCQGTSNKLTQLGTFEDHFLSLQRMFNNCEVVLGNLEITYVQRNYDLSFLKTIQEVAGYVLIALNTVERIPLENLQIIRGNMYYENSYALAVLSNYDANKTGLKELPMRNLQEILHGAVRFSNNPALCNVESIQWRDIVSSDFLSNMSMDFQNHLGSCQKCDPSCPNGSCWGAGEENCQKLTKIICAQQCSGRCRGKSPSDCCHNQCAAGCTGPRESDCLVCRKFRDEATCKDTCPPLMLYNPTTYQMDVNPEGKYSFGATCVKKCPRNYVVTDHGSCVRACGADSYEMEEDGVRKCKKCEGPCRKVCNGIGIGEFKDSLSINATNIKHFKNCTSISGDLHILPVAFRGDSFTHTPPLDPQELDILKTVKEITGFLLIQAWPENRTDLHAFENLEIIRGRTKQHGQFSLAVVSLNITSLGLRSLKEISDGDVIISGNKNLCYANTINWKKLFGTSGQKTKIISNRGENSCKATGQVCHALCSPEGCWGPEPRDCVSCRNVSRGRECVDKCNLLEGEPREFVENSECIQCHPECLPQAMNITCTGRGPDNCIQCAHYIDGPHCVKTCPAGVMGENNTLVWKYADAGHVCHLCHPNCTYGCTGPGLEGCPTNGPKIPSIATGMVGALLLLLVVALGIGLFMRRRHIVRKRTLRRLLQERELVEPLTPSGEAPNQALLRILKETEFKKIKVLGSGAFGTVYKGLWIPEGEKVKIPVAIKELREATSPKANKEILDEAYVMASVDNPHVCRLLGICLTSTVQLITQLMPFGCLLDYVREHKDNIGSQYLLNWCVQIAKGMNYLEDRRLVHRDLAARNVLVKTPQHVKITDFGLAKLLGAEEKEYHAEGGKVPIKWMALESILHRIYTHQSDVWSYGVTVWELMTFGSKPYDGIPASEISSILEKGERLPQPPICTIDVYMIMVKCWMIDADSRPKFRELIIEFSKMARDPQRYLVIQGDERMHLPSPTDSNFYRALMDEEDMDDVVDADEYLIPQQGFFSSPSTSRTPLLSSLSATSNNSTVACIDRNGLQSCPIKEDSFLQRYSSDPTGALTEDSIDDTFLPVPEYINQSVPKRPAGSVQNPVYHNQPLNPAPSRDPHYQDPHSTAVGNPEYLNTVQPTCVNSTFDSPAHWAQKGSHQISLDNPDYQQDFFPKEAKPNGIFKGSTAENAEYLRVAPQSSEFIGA
structure (smiles),measurement,setting,value
"COc1ccc(Nc2nc(C)nc3c(Cc4ccccc4)cn(C)c23)cc1 (as salt: salt) [Compound 3, 7-Benzyl-N-(4-methoxyphenyl)-2,5-dimethyl-5H-pyrrolo[3,2-d]pyrimidin-4-amine]",melting point,,291 to 292 °C
"COc1ccc2c(c1)CCCN2c1nc(C)nc2c(Cc3ccccc3)c[nH]c12 [Compound 2, 1-(7-Benzyl-2-methyl-5H-pyrrolo[3,2-d]pyrimidin-4-yl)-6-methoxy-1,2,3,4-tetrahydroquinoline]",GI50,[1],128 nM
same,GI50,[2],468 nM
same,GI50,[3],723 nM
same,GI50,[4],383 nM
same,GI50,[5],549 nM
same,GI50,[6],366 nM
same,GI50,[7],111 nM
same,IC50,[8],90.3 nM
same,GI50,[9],755 nM
same,GI50,[10],337 nM
same,GI50,[11],226 nM
same,GI50,[12],108 nM
same,IC50,[13],250 nM
same,GI50,[14],330 nM
same,GI50,[15],641 nM
same,GI50,[16],325 nM
same,GI50,[17],922 nM
same,GI50,[18],192 nM
same,GI50,[19],260 nM
same,GI50,[20],618 nM
same,GI50,[21],368 nM
same,GI50,[22],248 nM
same,GI50,[23],212 nM
same,GI50,[24],487 nM
same,GI50,[25],316 nM
same,GI50,[26],406 nM
same,GI50,[27],265 nM
same,GI50,[28],543 nM
same,GI50,[29],232 nM
same,GI50,[30],463 nM
same,GI50,[31],123 nM
same,GI50,[32],370 nM
same,GI50,[33],423 nM
same,GI50,[34],136 nM
same,GI50,[35],582 nM
same,GI50,[36],440 nM
same,GI50,[37],341 nM
same,GI50,[38],390 nM
same,GI50,[39],366 nM
same,GI50,[40],341 nM
same,"GI50 across the NCI 60 tumor cell line panel, in words",[41],2- to 3-digit nanomolar
same,IC50,[42],33.6 nM
same,GI50,[43],222 nM
same,GI50,[44],368 nM
same,GI50,[45],316 nM
same,GI50,[46],659 nM
same,GI50,[47],362 nM
same,GI50,[48],197 nM
same,GI50,[49],182 nM
same,GI50,[50],345 nM
same,GI50,[51],285 nM
same,GI50,[52],318 nM
same,GI50,[53],252 nM
same,GI50,[54],320 nM
same,GI50,[55],266 nM
same,GI50,[56],830 nM
same,GI50,[57],189 nM
same,GI50,[58],934 nM
same,GI50,[59],379 nM
same,GI50,[60],153 nM
same,GI50,[61],521 nM
